According to ChEMBL document CHEMBL1137954, “Carbonic anhydrase inhibitors: inhibition of the tumor-associated isozyme IX with fluorine-containing sulfonamides. The first subnanomolar CA IX inhibitor discovered” (Bioorg Med Chem Lett, 2004):
Values belong to the molecule of their own block, whether it stands above or below them.

Experiments:
Carbonic anhydrase 1 = Carbonic anhydrase 1 (Homo sapiens, UniProt P00915)
Description: Inhibitory activity against human carbonic anhydrase I

Carbonic anhydrase 2 = Carbonic anhydrase 2 (Homo sapiens, UniProt P00918)
Description: Inhibitory activity against human carbonic anhydrase II

Carbonic anhydrase 9 = Carbonic anhydrase 9 (Homo sapiens, UniProt Q16790)
Description: Inhibitory activity against human carbonic anhydrase IX

Chain of Carbonic anhydrase 1 (P00915 whole entry): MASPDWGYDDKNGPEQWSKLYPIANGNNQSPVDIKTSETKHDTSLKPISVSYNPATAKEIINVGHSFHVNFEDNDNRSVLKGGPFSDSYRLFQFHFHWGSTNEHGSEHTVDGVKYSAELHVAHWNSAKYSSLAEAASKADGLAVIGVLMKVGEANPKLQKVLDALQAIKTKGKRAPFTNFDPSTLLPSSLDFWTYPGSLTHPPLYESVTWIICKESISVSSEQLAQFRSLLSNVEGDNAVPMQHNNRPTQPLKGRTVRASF

Structure (SMILES): NS(=O)(=O)c1ccc(NC(=O)c2c(F)c(F)cc(F)c2F)c(Cl)c1
- Ki (Carbonic anhydrase 1): 1080 nM
- Ki (Carbonic anhydrase 2): 76 nM
- Ki (Carbonic anhydrase 9): 16 nM

Structure (SMILES): NS(=O)(=O)c1ccc(CNS(=O)(=O)c2c(F)c(F)cc(F)c2F)cc1
- Ki (Carbonic anhydrase 1): 860 nM
- Ki (Carbonic anhydrase 2): 12 nM
- Ki (Carbonic anhydrase 9): 8.5 nM

Structure (SMILES): NS(=O)(=O)c1ccc(CCNS(=O)(=O)c2ccc(NC(=O)c3c(F)c(F)cc(F)c3F)cc2)cc1
- Ki (Carbonic anhydrase 1): 6000 nM
- Ki (Carbonic anhydrase 2): 13 nM
- Ki (Carbonic anhydrase 9): 7.6 nM

Structure (SMILES): NS(=O)(=O)c1ccc(NC(=O)c2c(F)c(F)cc(F)c2F)c(F)c1
- Ki (Carbonic anhydrase 1): 760 nM
- Ki (Carbonic anhydrase 2): 1.5 nM
- Ki (Carbonic anhydrase 9): 24 nM

Structure (SMILES): NS(=O)(=O)c1ccc(CCNS(=O)(=O)c2c(F)c(F)cc(F)c2F)cc1
- Ki (Carbonic anhydrase 1): 750 nM
- Ki (Carbonic anhydrase 2): 9 nM
- Ki (Carbonic anhydrase 9): 7 nM

Structure (SMILES): NS(=O)(=O)c1ccc(NC(=O)c2c(F)c(F)cc(F)c2F)c(Br)c1
- Ki (Carbonic anhydrase 1): 1870 nM
- Ki (Carbonic anhydrase 2): 84 nM
- Ki (Carbonic anhydrase 9): 4.8 nM

Structure (SMILES): NS(=O)(=O)c1ccc(CNS(=O)(=O)c2ccc(NC(=O)c3c(F)c(F)cc(F)c3F)cc2)cc1
- Ki (Carbonic anhydrase 1): 6100 nM
- Ki (Carbonic anhydrase 2): 15 nM

Structure (SMILES): NS(=O)(=O)c1nnc(NS(=O)(=O)c2c(F)c(F)cc(F)c2F)s1
- Ki (Carbonic anhydrase 1): 13 nM
- Ki (Carbonic anhydrase 2): 0.7 nM
- Ki (Carbonic anhydrase 9): 4.3 nM

Now from value to molecule:

- Ki (Carbonic anhydrase 1): 1700 nM
- Ki (Carbonic anhydrase 2): 21 nM
- Ki (Carbonic anhydrase 9): 0.8 nM
Structure (SMILES): NS(=O)(=O)c1cccc(NC(=O)c2c(F)c(F)cc(F)c2F)c1

- Ki (Carbonic anhydrase 1): 980 nM
- Ki (Carbonic anhydrase 2): 13 nM
- Ki (Carbonic anhydrase 9): 9.5 nM
Structure (SMILES): NS(=O)(=O)c1ccc(CNC(=O)c2c(F)c(F)cc(F)c2F)cc1

- Ki (Carbonic anhydrase 1): 250 nM
- Ki (Carbonic anhydrase 2): 2.1 nM
- Ki (Carbonic anhydrase 9): 12.6 nM
Structure (SMILES): NS(=O)(=O)c1nnc(NC(=O)c2c(F)c(F)cc(F)c2F)s1

- Ki (Carbonic anhydrase 1): 1500 nM
- Ki (Carbonic anhydrase 2): 38 nM
- Ki (Carbonic anhydrase 9): 9.5 nM
Structure (SMILES): NS(=O)(=O)c1ccccc1NC(=O)c1c(F)c(F)cc(F)c1F

- Ki (Carbonic anhydrase 1): 900 nM
- Ki (Carbonic anhydrase 2): 12 nM
- Ki (Carbonic anhydrase 9): 7.3 nM
Structure (SMILES): NS(=O)(=O)c1ccc(CCNC(=O)c2c(F)c(F)cc(F)c2F)cc1

- Ki (Carbonic anhydrase 1): 270 nM
- Ki (Carbonic anhydrase 2): 1.4 nM
- Ki (Carbonic anhydrase 9): 10.5 nM
Structure (SMILES): Cn1nc(S(N)(=O)=O)s/c1=N\C(=O)c1c(F)c(F)cc(F)c1F

- Ki (Carbonic anhydrase 1): 6300 nM
- Ki (Carbonic anhydrase 2): 19 nM
- Ki (Carbonic anhydrase 9): 3.2 nM
Structure (SMILES): NS(=O)(=O)c1ccc(NS(=O)(=O)c2ccc(NC(=O)c3c(F)c(F)cc(F)c3F)cc2)cc1

- Ki (Carbonic anhydrase 1): 975 nM
- Ki (Carbonic anhydrase 2): 16 nM
- Ki (Carbonic anhydrase 9): 15.2 nM
Structure (SMILES): NS(=O)(=O)c1ccc(NC(=O)c2c(F)c(F)cc(F)c2F)cc1
